Reference: patent publication US8980926B2, “2-aminoindole compounds and methods for the treatment of malaria” (Genzyme Corporation, priority 2009, dated 2015)
Like-named read-outs stand apart in the source and are kept apart here.

Experiments:
P. falciparum strain 3D7 = test: In vitro potency against P. falciparum strain 3D7 (SYBR green/DAPI); type: cell-based; conditions: Plasmodium falciparum
[1] = tested on: Plasmodium falciparum strain Dd2; test: In vitro potency against P. falciparum strain Dd2; type: cell-based; conditions: read-out: Potency (IC50; nM) Plasmodium spp. Pf Dd2
P. knowlesi strain H1 = test: In vitro potency against P. knowlesi H1 in Rhesus blood cells (3H-hypoxanthine incorporation); type: cell-based; conditions: Plasmodium knowlesi, in Macaca mulatta, read-out: Potency (IC50; nM) Plasmodium spp. Pk H1
Description: Selected compounds were tested against P. knowlesi H1 strain parasites cultured in Rhesus blood cells as a surrogate for P. vivax infections using the method of Kocken and coworkers (Kocken, C. H., H. Ozwara, A. van der Wel, A. L. Beetsma, J. M. Mwenda, and A. W. Thomas. 2002. Plasmodium knowlesi provides a rapid in vitro and in vivo transfection system that enables double-crossover gene knockout studies. Infect Immun 70:655-660). Briefly, P. knowlesi were cultured in 2% Rhesus macaque erythrocytes (New England Primate Research Center) in RPMI culture media containing 10% Human O+ serum (Interstate Blood Bank). Schizont stage parasites were purified by floatation in 60% Percoll (GE life sciences) and allowed to reinvade to generate a synchronous population of ring stage parasites. Drug assays were performed by plating ring stage parasites at 0.5% parasitemia in triplicate, in RPMI containing 2.5 μg/ml hypoxanthine. Parasites were incubated for 24 hours with serially diluted test compounds. After 24 hours, thin smears were made to confirm that reinvasion had occurred, 0.5 μCi ^3H-labeled hypoxanthine (Perkin Elmer) were added to each well, and parasites were allowed to progress through S-phase to early schizonts. Cells were then harvested via glass filter plates and ^3H incorporation was measured by scintillation counting. Values were normalized to percentage of controls containing no drug, and IC50 values were generated (GraphPad Prism®).

[2] = Mammalian cytotoxicity, dermal fibroblast; type: cell-based; conditions: human, normal human dermal fibroblasts (Clonetics #CC-2509); read-out: Selectivity, Mammalian cytotoxicity (IC50; μM) Dermal Fibroblast
[3] = Mammalian cytotoxicity, kidney epithelial; type: cell-based; conditions: normal human renal proximal tubule cells; read-out: Selectivity, Mammalian cytotoxicity (IC50; μM) Kidney epithelial
Erythrocyte lysis = type: cell-based; conditions: erythrocytes, read-out: Selectivity, Mammalian cytotoxicity (IC50; μM) Eryth. Lysis
hERG = molecular target: T1, hERG (Homo sapiens, UniProt Q12809); test: hERG in Chinese hamster ovary cells; type: cell-based
T1 construct: expressed in transfected cells; host or cells: Chinese hamster ovary cells (from the earlier reading's assay name)

P. berghei N-clone = test: In vivo efficacy against P. berghei in mice (4-day suppressive test, oral); parameters: species or system P. berghei in Swiss Albino mice; conditions: for Average Day of Recrudescence: Study Day; for No. Cured: animals cured/group; for Recrudescence (no. animals/total): no parasites on Day 5 but later regressed; for % Suppression Day 5: vs untreated controls; for % of group without parasites: FIG. 3D; for cures: doses of 100-200 mg/kg/day
From the text: Because of ethical issues and costs, the acute P. berghei model in rodents is considered the “gold standard” for assessing anti-malarial efficacy in animal models. This model is adapted from Peters' “4-day suppressive test” (Peters, W. 1987. Chemotherapy and Drug Resistance in Malaria, p. 102-115, 2ed, vol. 1. Academic Press, Orlando, Fla.; Peters, W. 1975. The chemotherapy of rodent malaria, XXII. The value of drug-resistant strains of P. berghei in screening for blood schizontocidal activity. Ann Trop Med Parasitol 69:155-171). All studies were conducted in accordance with the Guide for the Care and Use of Laboratory Animals (National-Research-Council. 1996. Guide for the Care and Use of Laboratory Animals. National Academy Press, Washington, D.C.) and the PHS guidelines. Animals were maintained according to NIH guidelines and were allowed to acclimatize for 1 week prior to the commencement of studies. On Day 0, groups of 4-6-week old female Swiss Albino mice (n=5) were infected by tail vein injection with 0.2 ml heparinized blood diluted to contain 1×10^7 N-clone parasites. The aminoindole analogs were formulated in 1.6% lactic acid mixed sodium salt, 1% Tween 80, 9% ethanol and 20% Cerestar (hydroxypropyl β-cyclodextrin; Wacker Chimie) and were administered by oral gavage. […] Animals in the Control-group received vehicle alone. Dose concentration and frequency of dosing were based upon preliminary tolerability/exposure studies. On Day 4 post-infection (5th day of assay) blood was collected by tail-nick, and thin smear microscope slides were prepared and stained using Diff Quick®. Parasitized erythrocytes were counted and compared with the total number of erythrocytes per microscopic field to determine the percent parasitemia. A minimum of 350 erythrocytes were counted. Animals showing no detectable parasites on Day 4 were examined every 2-3 days to determine whether cure was sterile. Animals with no detectable parasites 28 days after cessation of dosing (Study Day 33) were considered cured.

P. berghei ANKA strain = test: In vitro potency against P. berghei ANKA; type: cell-based; conditions: Plasmodium berghei, read-out: Potency (IC50; nM) Plasmodium spp. Pb ANKA
[4] = tested on: P. berghei ANKA strain GFP MRA-865; test: In vivo efficacy against P. berghei ANKA GFP in the humanized murine system; parameters: species or system P. berghei in mice; conditions: b.i.d.
[5] = tested on: P. falciparum Pf3D7^0087/N9; test: In vivo efficacy against P. falciparum in humanized mice; conditions: b.i.d.
malaria = test: In vivo efficacy in an animal (rodent) model of malaria (FIGS. 1, 2); conditions: for in vivo efficacy (treatment of malaria) / in vivo efficacy (reducing parasitemia): 50 mg/kg dose
[6] = read-out: Potency (IC50; nM) Plasmodium spp. Pf 3D7
[7] = reductions in parasitemia, read-out: IC50 values

T1 sequence (Q12809 whole entry): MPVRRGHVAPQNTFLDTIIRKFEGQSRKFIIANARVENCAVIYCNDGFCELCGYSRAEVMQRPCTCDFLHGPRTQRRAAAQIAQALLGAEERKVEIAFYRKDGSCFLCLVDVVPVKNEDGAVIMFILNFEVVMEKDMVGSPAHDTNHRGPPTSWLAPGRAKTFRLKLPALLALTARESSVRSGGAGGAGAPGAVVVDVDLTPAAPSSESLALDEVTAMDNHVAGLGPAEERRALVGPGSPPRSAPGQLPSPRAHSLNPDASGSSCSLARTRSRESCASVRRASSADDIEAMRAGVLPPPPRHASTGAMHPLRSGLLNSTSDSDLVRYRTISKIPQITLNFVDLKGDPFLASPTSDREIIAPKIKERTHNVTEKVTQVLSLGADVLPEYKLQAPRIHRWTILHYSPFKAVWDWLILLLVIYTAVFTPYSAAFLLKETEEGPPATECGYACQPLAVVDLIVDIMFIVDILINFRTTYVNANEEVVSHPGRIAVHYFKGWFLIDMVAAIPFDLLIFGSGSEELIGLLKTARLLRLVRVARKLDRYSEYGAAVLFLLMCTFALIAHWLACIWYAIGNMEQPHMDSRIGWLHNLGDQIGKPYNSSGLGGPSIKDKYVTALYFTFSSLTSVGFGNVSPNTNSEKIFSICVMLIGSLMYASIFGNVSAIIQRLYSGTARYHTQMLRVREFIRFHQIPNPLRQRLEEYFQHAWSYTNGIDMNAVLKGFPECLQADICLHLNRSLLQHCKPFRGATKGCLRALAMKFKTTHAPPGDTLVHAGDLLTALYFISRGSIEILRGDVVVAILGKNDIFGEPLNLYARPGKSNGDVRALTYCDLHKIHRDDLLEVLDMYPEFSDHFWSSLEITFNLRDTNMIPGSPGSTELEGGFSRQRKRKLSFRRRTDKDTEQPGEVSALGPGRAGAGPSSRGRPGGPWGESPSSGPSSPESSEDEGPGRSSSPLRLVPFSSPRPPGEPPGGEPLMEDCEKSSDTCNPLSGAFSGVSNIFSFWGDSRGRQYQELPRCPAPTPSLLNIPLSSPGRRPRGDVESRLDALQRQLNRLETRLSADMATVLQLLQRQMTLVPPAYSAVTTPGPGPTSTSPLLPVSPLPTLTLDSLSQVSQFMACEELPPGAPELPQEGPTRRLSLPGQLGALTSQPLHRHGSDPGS

SMILES	IC50 (P. falciparum strain 3D7; [6]) [nM]	IC50 (P. falciparum strain 3D7; [7]) [nM]	IC50 [1] [nM]	IC50 (P. knowlesi strain H1) [nM]	IC50 (P. berghei ANKA strain) [nM]	IC50 [2] [µM]	IC50 [3] [µM]	IC50 (Erythrocyte lysis) [µM]	Selectivity, hERG (μM) CHO (hERG) [µM]	Average Day of Recrudescence (P. berghei N-clone; 100 mg/kg/day b.i.d. p.o.) [days]	No. Cured (P. berghei N-clone; 100 mg/kg/day b.i.d. p.o.)	Recrudescence (no. animals/total) (P. berghei N-clone; 100 mg/kg/day b.i.d. p.o.)	% Suppression Day 5 (P. berghei N-clone; 100 mg/kg/day b.i.d. p.o.) [%]	No. Cured (P. berghei N-clone; 200 mg/kg/day b.i.d. p.o.)	% Suppression Day 5 (P. berghei N-clone; 200 mg/kg/day b.i.d. p.o.) [%]	cures (P. berghei N-clone)	Average Day of Recrudescence (P. berghei N-clone; 50 mg/kg/day b.i.d. p.o.) [days]	No. Cured (P. berghei N-clone; 50 mg/kg/day b.i.d. p.o.)	Recrudescence (no. animals/total) (P. berghei N-clone; 50 mg/kg/day b.i.d. p.o.)	% Suppression Day 5 (P. berghei N-clone; 50 mg/kg/day b.i.d. p.o.) [%]	further results
CCOc1ccc(F)cc1[C@@]1(O)C(N)=Nc2ccc(Cl)cc21 (stereo in doubt) [Compound 267]	28	1 to 100	65	26	331	> 195	> 195	> 125	36.6	14	0/5	2/4	95	3/5	100	able to affect cures	–	–	–	–	Average Day of Recrudescence (P. berghei N-clone; 200 mg/kg/day b.i.d. p.o.): 12 days; Recrudescence (no. animals/total) (P. berghei N-clone; 200 mg/kg/day b.i.d. p.o.): 2/5; ED50 P. berghei N-clone (P. berghei N-clone; b.i.d.): 32 mg/kg/day; ED90 P. berghei N-clone (P. berghei N-clone; b.i.d.): 68 mg/kg/day; ED50 P. berghei N-clone (P. berghei N-clone; t.i.d.): 35 mg/kg/day; ED90 P. berghei N-clone (P. berghei N-clone; t.i.d.): 58 mg/kg/day; ED50 P. berghei ANKA strain GFP MRA-865 [4]: 19 mg/kg/day; ED90 P. berghei ANKA strain GFP MRA-865 [4]: 30 mg/kg/day; ED50 P. falciparum Pf3D7^0087/N9 [5]: 40 mg/kg/day; ED90 P. falciparum Pf3D7^0087/N9 [5]: 74 mg/kg/day
NC1=Nc2ccc(Cl)cc2C1(O)c1ccccc1 (stereo not drawn) [Compound 1]	200	100 to 500	285	336	1560	> 242	> 242	> 155	>25	–	–	–	–	–	–	–	13	0/5	5/5	100	in vivo efficacy (treatment of malaria) (malaria; IP administration for four days, FIG. 1): effectively treated malaria; in vivo efficacy, dose dependence (malaria; IP administration for four days at various doses, FIG. 1): dose-response relationship was observed
NC1=Nc2ccc(Cl)cc2[C@@]1(O)c1ccccc1 [Compound 2]	665	100 to 500	1460	–	1360	> 242	> 242	> 155	–	–	–	–	–	–	–	–	–	0/5	–	80	in vivo efficacy (reducing parasitemia) (malaria; FIGS. 2A and 2B): efficacious for reducing parasitemia
NC1=Nc2ccc(Cl)cc2[C@]1(O)c1ccccc1 [Compound 3]	313	100 to 500	675	–	1690	> 242	> 242	> 155	–	–	5/5	–	100	–	–	able to affect cures	12	2/5	3/5	100	in vivo efficacy (reducing parasitemia) (malaria; FIGS. 2A and 2B): efficacious for reducing parasitemia; in vivo efficacy (treatment of malaria) (malaria; FIGS. 2A and 2B): effectively treated malaria

Continued, in another order:

IC50 (P. falciparum strain 3D7; [6]) [nM]	IC50 (P. falciparum strain 3D7; [7]) [nM]	IC50 [1] [nM]	IC50 (P. knowlesi strain H1) [nM]	IC50 (P. berghei ANKA strain) [nM]	SMILES	IC50 [2] [µM]	IC50 [3] [µM]	IC50 (Erythrocyte lysis) [µM]	Selectivity, hERG (μM) CHO (hERG) [µM]	Average Day of Recrudescence (P. berghei N-clone; 100 mg/kg/day b.i.d. p.o.) [days]	No. Cured (P. berghei N-clone; 100 mg/kg/day b.i.d. p.o.)	Recrudescence (no. animals/total) (P. berghei N-clone; 100 mg/kg/day b.i.d. p.o.)	% Suppression Day 5 (P. berghei N-clone; 100 mg/kg/day b.i.d. p.o.) [%]	No. Cured (P. berghei N-clone; 200 mg/kg/day b.i.d. p.o.)	% Suppression Day 5 (P. berghei N-clone; 200 mg/kg/day b.i.d. p.o.) [%]	cures (P. berghei N-clone)	Average Day of Recrudescence (P. berghei N-clone; 50 mg/kg/day b.i.d. p.o.) [days]	No. Cured (P. berghei N-clone; 50 mg/kg/day b.i.d. p.o.)	Recrudescence (no. animals/total) (P. berghei N-clone; 50 mg/kg/day b.i.d. p.o.)	% Suppression Day 5 (P. berghei N-clone; 50 mg/kg/day b.i.d. p.o.) [%]	further results
23	1 to 100	49	38	–	CCOc1ccc(F)cc1C1(O)C(N)=Nc2ccc(Cl)cc21 (racemic) [Compound 142, 2-amino-5-chloro-3-(2-ethoxy-5-fluorophenyl)-3H-indol-3-ol]	> 195	> 195	> 125	21	11	0/5	1/5	99	3/5	99	able to affect cures	–	–	–	–	Average Day of Recrudescence (P. berghei N-clone; 200 mg/kg/day b.i.d. p.o.): 13 days; Recrudescence (no. animals/total) (P. berghei N-clone; 200 mg/kg/day b.i.d. p.o.): 1/5; % of group without parasites (P. berghei N-clone; day 5, 100/mg/kg/day): 20%; % of group without parasites (P. berghei N-clone; day 5, 200/mg/kg/day): 80%; % of group without parasites (P. berghei N-clone; day 30, 200/mg/kg/day): 60%
183	1 to 100	455	318	–	Cc1ccc2c(c1)C(O)(c1ccccc1)C(N)=N2 (stereo not drawn) [Compound 37]	> 62.5	> 62.5	> 168	–	17	3/5	2/5	100	5/5	100	able to affect cures	–	–	–	–	–
108	100 to 500	347	190	2990	CC(C)C1(O)C(N)=Nc2ccc(Cl)cc21 (stereo not drawn) [Compound 39]	> 62.5	> 62.5	> 178	–	13	0/5	3/5	99	–	–	–	10	0/5	3/5	98	–
22	1 to 100	37	90	–	CC(C)Oc1ccccc1C1(O)C(N)=Nc2ccc(Cl)cc21 (stereo not drawn) [Compound 146]	> 188	> 188	> 120	19	6	0/5)	1/5	99	–	–	–	–	–	–	–	–
